# Reference: ChEMBL document CHEMBL3217405, “Methanocarba ring as a ribose modification in ligands of G protein-coupled purine and pyrimidine receptors: synthetic approaches” (Medchemcomm, 2013)
# Columns and labels:
# Adenosine receptor A3 [1] = biological target: T1, Adenosine receptor A3 (Homo sapiens, UniProt P0DMS8); assay: Agonist activity at adenosine A3 receptor (unknown origin) assessed as stimulation of [35S]GTPgammaS binding; type: functional
# T1 sequence (P0DMS8 whole entry): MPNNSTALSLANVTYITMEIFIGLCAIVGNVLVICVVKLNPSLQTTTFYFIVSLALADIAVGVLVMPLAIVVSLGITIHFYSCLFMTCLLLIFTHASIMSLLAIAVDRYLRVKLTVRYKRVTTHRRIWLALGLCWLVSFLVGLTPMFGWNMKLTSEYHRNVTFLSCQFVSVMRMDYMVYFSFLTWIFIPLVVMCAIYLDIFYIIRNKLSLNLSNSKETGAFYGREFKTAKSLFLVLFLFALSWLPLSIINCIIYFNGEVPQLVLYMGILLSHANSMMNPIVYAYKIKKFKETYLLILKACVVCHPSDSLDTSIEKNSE
# [2] = biological target: Adenosine receptors; A1 & A3 (Homo sapiens) (UniProt P30542+P0DMS8); assay: Selectivity ratio of adenosine A3 receptor (unknown origin) over adenosine A1 receptor (unknown origin)
# Adenosine receptor A3 [3] = biological target: T1, Adenosine receptor A3; assay: Binding affinity to adenosine A3 receptor (unknown origin)
SMILES,EC50 (Adenosine receptor A3 [1]) [µM],Selectivity ratio [2],other results
O=P(O)(OC[C@@]12C[C@@H]1[C@@H](n1cnc3c(O)ncnc31)[C@H](O)[C@@H]2O)OP(=O)(O)OC[C@@]12C[C@@H]1[C@@H](n1cnc3c(O)ncnc31)[C@H](O)[C@@H]2O,–,–,Ki (Adenosine receptor A3 [3]): 22 µM
CNc1ncnc2c1ncn2[C@H]1[C@H](O)[C@H](O)[C@]2(CO)C[C@H]12,–,12,–
CNC(=O)[C@@]12C[C@@H]1[C@@H](n1cnc3c(NC)nc(Cl)nc31)[C@H](O)[C@@H]2O,–,130,–

# Second part, led by results:
EC50 (Adenosine receptor A3 [1]) [µM],Selectivity ratio [2],SMILES,other results
< 0.001,–,OC[C@@]12C[C@@H]1[C@@H](n1cnc3c(NCc4cccc(I)c4)nc(Cl)nc31)[C@H](O)[C@@H]2O,–
–,39,CNc1nc(Cl)nc2c1ncn2[C@H]1[C@H](O)[C@H](O)[C@]2(CO)C[C@H]12,–
< 0.001,–,OC[C@@]12C[C@@H]1[C@@H](n1cnc3c(NCc4cccc(I)c4)ncnc31)[C@H](O)[C@@H]2O,–
